This note sets out measurements from patent US8466145B2, “Dipeptidyl peptidase IV inhibitors” (Orchid Chemicals & Pharmaceuticals Limited, priority 2009, dated 2013).

Molecules are shown by their SMILES. Counter-ions that a name gives are not always drawn.

In one data set the target is T1, human recombinant Dipeptidyl peptidase IV enzyme (hrDPP IV) (Homo sapiens, UniProt P27487).
T1 construct: purchased R&D systems
T1 sequence (P27487 whole entry): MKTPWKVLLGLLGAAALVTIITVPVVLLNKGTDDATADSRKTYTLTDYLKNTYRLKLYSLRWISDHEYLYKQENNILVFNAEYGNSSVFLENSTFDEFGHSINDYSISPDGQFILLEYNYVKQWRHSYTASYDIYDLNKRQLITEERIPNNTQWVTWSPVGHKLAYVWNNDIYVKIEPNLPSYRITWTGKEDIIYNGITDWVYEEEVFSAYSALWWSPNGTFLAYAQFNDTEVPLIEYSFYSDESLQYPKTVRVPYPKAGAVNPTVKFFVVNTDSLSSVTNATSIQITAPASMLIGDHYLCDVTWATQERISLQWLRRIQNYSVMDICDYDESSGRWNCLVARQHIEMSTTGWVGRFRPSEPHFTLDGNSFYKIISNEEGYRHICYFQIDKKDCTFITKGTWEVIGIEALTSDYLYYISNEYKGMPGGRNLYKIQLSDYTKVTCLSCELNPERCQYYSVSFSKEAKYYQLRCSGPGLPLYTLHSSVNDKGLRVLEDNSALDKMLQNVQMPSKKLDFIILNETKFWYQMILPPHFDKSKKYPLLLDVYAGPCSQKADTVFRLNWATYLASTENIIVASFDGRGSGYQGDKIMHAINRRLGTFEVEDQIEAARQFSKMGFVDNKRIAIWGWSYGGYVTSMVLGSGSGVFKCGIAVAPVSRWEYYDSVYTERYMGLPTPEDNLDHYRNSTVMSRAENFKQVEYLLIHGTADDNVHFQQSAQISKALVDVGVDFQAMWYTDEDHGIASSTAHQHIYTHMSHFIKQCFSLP
Briefly: DPP IV assay, cleavage of H-Gly-Pro-AMC by human recombinant DPP-IV enzyme. Type of data set: biochemical.
Settings: not given
As to the method:
DPP IV activity was determined by the cleavage rate of 7-amino 4-methylcoumarin (AMC) from the substrate H-Gly-Pro-AMC. In brief, the assay was conducted by adding 3 ng of human recombinant Dipeptidyl peptidase IV enzyme (hrDPP IV, available commercially from R&D systems) in 70 μL of the assay buffer (25 mM HEPES, 140 mM NaCl and 1% BSA, pH 7.8) to a 96 well black flat bottom microtitre plate. Test compounds were added as 10 μL additions to all wells except blank and total activity wells. After incubation of test substance with enzyme for 60 minutes at room temperature, 10 μL of 100 μM substrate H-Gly-Pro-AMC was added. After mixing, the plate was left for 20 minutes at room temperature. Then the reaction was terminated by addition of 10 μL of 25% glacial acetic acid. Fluorescence was measured using Spectra Max Gemini XS (Molecular Devices, USA) at an excitation filter of 360 nm and emission filter of 460 nm.
Test compounds dissolved in DMSO were diluted with assay buffer at different concentrations and tested in duplicates. Percentage inhibition was calculated with respect to total activity. IC50 value was calculated using Prism Software.
For orientation: IC50 means the concentration that gives 50% inhibition. Turning to `CC1(C)[C@@H](CNc2ccc(C#N)cn2)CC[C@@]1(C)NCC(=O)N1C[C@@H](F)C[C@H]1C#N` [Example 24, 6-(((1S,3R)-3-(2-((2S,4S)-2-Cyano-4-fluoropyrrolidin-1-yl)-2-oxoethylamino)-2,2,3-trimethylcyclopentyl)methylamino)nicotinonitrile], the IC50 was 134 nM. Turning to `CC1(C)[C@H](Cn2ccnn2)CC[C@]1(C)NCC(=O)N1C[C@@H](F)C[C@H]1C#N` [Example 13, (2S,4S)-1-(2-((1S,3R)-3-((1H-1,2,3-Triazol-1-yl)methyl)-1,2,2-trimethylcyclopentylamino)acetyl)-4-fluoropyrrolidine-2-carbonitrilemethane sulfonate], the IC50 is 27.8 nM. Same read-out and setting: the value for `CC1(C)[C@@H](CN2CCOCC2)CC[C@@]1(C)NCC(=O)N1C[C@@H](F)C[C@H]1C#N` [Example 33, (2S,4S)-4-Fluoro-1-(2-((1R,3S)-1,2,2-trimethyl-3-(morpholinomethyl)cyclopentylamino)acetyl)pyrrolidine-2-carbonitrile] was 250 nM; that for `CC1(C)[C@@H](CNS(=O)(=O)c2ccc(F)cc2)CC[C@@]1(C)NCC(=O)N1C[C@@H](F)C[C@H]1C#N` [Example 19, N-(((1S,3R)-3-(2-((2S,4S)-2-Cyano-4-fluoropyrrolidin-1-yl)-2-oxoethylamino)-2,2,3-trimethylcyclopentyl)methyl)-4-fluorobenzenesulfonamide] was 304.8 ± 2.1 nM. Take `CC1(C)[C@@H](Cn2cncn2)CC[C@@]1(C)NCC(=O)N1CCC[C@H]1C#N` [Example 9, (S)-1-(2-((1R,3S)-3-((1H-1,2,4-Triazol-1-yl)methyl)-1,2,2-trimethylcyclopentylamino)acetyl)pyrrolidine-2-carbonitrilemethanesulfonate]: the IC50 amounted to 781 ± 91.6 nM.

As for `CC1(C)[C@H](CNc2ccc(C#N)cn2)CC[C@]1(C)NCC(=O)N1C[C@@H](F)C[C@H]1C#N` [Example 25, 6-(((1R,3S)-3-(2-((2S,4S)-2-Cyano-4-fluoropyrrolidin-1-yl)-2-oxoethylamino)-2,2,3-trimethylcyclopentyl)methylamino)nicotinonitrile], the IC50 came out at 29.4 nM. With `CC1(C)[C@H](Cn2cncn2)CC[C@]1(C)NCC(=O)N1CCC[C@H]1C#N` [Example 7, (S)-1-(2-((1S,3R)-3-((1H-1,2,4-Triazol-1-yl)methyl)-1,2,2-trimethylcyclopentylamino)acetyl)pyrrolidine-2-carbonitrile methanesulfonate], the IC50 is 99.8 nM. Turning to `CC1(C)[C@@H](Cn2cncn2)CC[C@@]1(C)NCC(=O)N1CCC[C@H]1C#N` [Example 8, (S)-1-(2-((1R,3S)-3-((1H-1,2,4-Triazol-1-yl)methyl)-1,2,2-trimethyleyclopentylamino)acetyl)pyrrolidine-2-carbonitrile], the IC50 turned out to be 1170 ± 0.14 nM. With `CC1(C)[C@@H](Cn2ccnn2)CC[C@@]1(C)NCC(=O)N1C[C@@H](F)C[C@H]1C#N` [Example 11, (2S,4S)-1-(2-((1R,3S)-3-((1H-1,2,3-Triazol-1-yl)methyl)-1,2,2-trimethylcyclopentylamino)acetyl)-4-fluoropyrrolidine-2-carbonitrile], the IC50 was 232 nM. Take `CC1(C)[C@H](Cn2cncn2)CC[C@]1(C)NCC(=O)N1CCC[C@H]1C#N` [Example 6, (S)-1-(2-((1S,3R)-3-((1H-1,2,4-Triazol-1-yl)methyl)-1,2,2-trimethylcyclopentylamino)acetyl)pyrrolidine-2-carbonitrile]: the IC50 came out at 123 nM. For `CC1(C)[C@@H](Cn2cnnn2)CC[C@@]1(C)NCC(=O)N1C[C@@H](F)C[C@H]1C#N` [Example 31, (2S,4S)-1-(2-((1R,3S)-3-((1H-Tetrazol-1-yl)methyl)-1,2,2-trimethylcyclopentylamino)acetyl)-4-fluoropyrrolidine-2-carbonitrile methanesulfonate], the IC50 came out at 264 nM.

The same data set, now with this note: 300 nM compound concentration.
As usually defined, the inhibition is the drop in the measured response relative to a control, in per cent. `CC1(C)[C@@]2(C)CC[C@]1(NCC(=O)N1CCC[C@H]1C#N)COC2` [Example 80, (S)-1-(2-((1R,5R)-5,8,8-Trimethyl-3-oxabicyclo[3.2.1]octan-1-ylamino)acetyl)pyrrolidine-2-carbonitrile]: the inhibition at 0.3 µM turned out to be 2.28%. For the molecule `CN1C[C@]2(C)CC[C@](NCC(=O)N3CCC[C@H]3C#N)(C1)C2(C)C` [Example 78, (S)-1-(2-((1R,5R)-3,5,8,8-Tetramethyl-3-azabicyclo[3.2.1]octan-1-ylamino)acetyl)pyrrolidine-2-carbonitrile], the inhibition at 0.3 µM came out at 23.3%.

As to `CC1(C)[C@]2(C)CC[C@@]1(NCC(=O)N1C[C@@H](F)C[C@H]1C#N)COC2` [Example 82, (2S,4S)-4-Fluoro-1-(2-((1S,5S)-5,8,8-trimethyl-3-oxabicyclo[3.2.1]octan-1-ylamino)acetyl)pyrrolidine-2-carbonitrile], the inhibition at 0.3 µM turned out to be 22.4%. Same read-out and setting: next, `CC1(C)[C@@H](CNS(C)(=O)=O)CC[C@@]1(C)NCC(=O)N1C[C@@H](F)C[C@H]1C#N` [Example 17, N-(((1S,3R)-3-(2-((2S,4S)-2-Cyano-4-fluoropyrrolidin-1-yl)-2-oxoethylamino)-2,2,3-trimethylcyclopentyl)methyl)methanesulfonamide]: 46.6%; `CC1(C)[C@@H](CN2CCC(O)CC2)CC[C@@]1(C)NCC(=O)N1C[C@@H](F)C[C@H]1C#N` [Example 41, (2S,4S)-4-Fluoro-1-(2-((1R,3S)-3-((4-hydroxypiperidin-1-yl)methyl)1,2,2-trimethylcyclopentylamino)acetyl)pyrrolidine-2-carbonitrile]: 26.1%; `CC1(C)[C@@H](C(=O)N2CCCCC2)CC[C@@]1(C)NCC(=O)N1C[C@@H](F)C[C@H]1C#N` [Example 14, (2S,4S)-4-Fluoro-1-(2-((1R,3S)-1,2,2-trimethyl-3-(piperidine-1-carbonyl)cyclopentylamino)acetyl)pyrrolidine-2-carbonitrile]: 73.2%. On the same count and under the same terms, next, `CC1(C)[C@@H](CC#N)CC[C@@]1(C)NCC(=O)N1C[C@@H](F)C[C@H]1C#N` [Example 53, (2S,4S)-1-(2-((1R,3R)-3-(Cyanomethyl)-1,2,2-trimethylcyclopentylamino)acetyl)-4-fluoropyrrolidine-2-carbonitrile]: 56.5%; `CC1(C)[C@@]2(C)CC[C@]1(NCC(=O)N1C[C@@H](F)C[C@H]1C#N)COC2` [Example 81, (2S,4S)-4-Fluoro-1-(2-((1R,5R)-5,8,8-trimethyl-3-oxabicyclo[3.2.1]octan-1-ylamino)acetyl)pyrrolidine-2-carbonitrile]: 21.3%; `CC1(C)[C@H](CN2CCCCC2)CC[C@]1(C)NCC(=O)N1C[C@@H](F)C[C@H]1C#N` [Example 40, (2S,4S)-4-Fluoro-1-(2-((1S,3R)-1,2,2-trimethyl-3-(piperidin-1-ylmethyl)cyclopentylamino)acetyl)pyrrolidine-2-carbonitrile]: 84.7%.

System in another data set: not given
Test: not given
Settings: not given
As a reminder, the melting point is the temperature of the solid-liquid transition. In the case of `CC1(C)[C@@H](NCC(=O)N2CCC[C@H]2C#N)CC[C@@]1(C)c1nc(-c2ccc(F)cc2)no1` (as salt: methanesulfonate) [Example 66, (S)-1-(2-((1S,3R)-3-(3-(4-Fluorophenyl)-1,2,4-oxadiazol-5-yl)-2,2,3-trimethylcyclopentylamino)acetyl)pyrrolidine-2-carbonitrile methanesulfonate], the melting point lay within 206 to 211 °C. Still for that read-out and setting: next, `CN1C(=O)[C@]2(C)CC[C@](NCC(=O)N3CCC[C@H]3C#N)(C1=O)C2(C)C` [Example 75, (S)-1-(2-((1R,5R)-3,5,8,8-Tetramethyl-2,4-dioxo-3-azabicyclo[3.2.1]octan-1-ylamino)acetyl)pyrrolidine-2-carbonitrile]: 141 to 144 °C; `CC1(C)[C@@H](Cn2cnnn2)CC[C@@]1(C)NCC(=O)N1C[C@@H](F)C[C@H]1C#N` (as salt: methanesulfonate) [Example 31, (2S,4S)-1-(2-((1R,3S)-3-((1H-Tetrazol-1-yl)methyl)-1,2,2-trimethylcyclopentylamino)acetyl)-4-fluoropyrrolidine-2-carbonitrile methanesulfonate]: 210 to 214 °C. The same measure, in the same setting: the value for `CC1(C)[C@@H](CS(=O)(=O)c2ccc(S(C)(=O)=O)cc2)CC[C@@]1(C)NCC(=O)N1C[C@H](F)C[C@H]1C#N` [Example 43, (2S,4R)-4-Fluoro-1-(2-((1R,3S)-1,2,2-trimethyl-3-((4-(methylsulfonyl)phenylsulfonyl)methyl)cyclopentylamino)acetyl)pyrrolidine-2-carbonitrile] was 163 to 166 °C; that for `CC1(C)[C@@H](Cn2cncn2)CC[C@@]1(C)NCC(=O)N1CCC[C@H]1C#N` (as salt: methanesulfonate) [Example 9, (S)-1-(2-((1R,3S)-3-((1H-1,2,4-Triazol-1-yl)methyl)-1,2,2-trimethylcyclopentylamino)acetyl)pyrrolidine-2-carbonitrilemethanesulfonate] was 150 to 155 °C. `CC1(C)[C@@]2(C)CC[C@]1(NCC(=O)N1CCC[C@H]1C#N)C(=O)OC2` [Example 79, (S)-1-(2-((1R,5R)-5,8,8-Trimethyl-2-oxo-3-oxabicyclo[3.2.1]octan-1-ylamino)acetyl)pyrrolidine-2-carbonitrile] returned a melting point of 174 to 177 °C.
